Laboratory results from patent publication US20090170867A1, “TRPV1 ANTAGONISTS INCLUDING SULFONAMIDE SUBSTITUENT AND USES THEREOF” (Shionogi & Co., Ltd., priority 2007, published 2009).
Converted amounts (≈) assume the structure as drawn. Where two headings read alike, the source gives them in different places.

Assays:
human TRPV1 [1] = target: T1, human TRPV1 (Homo sapiens, UniProt Q8NER1); experiment: Capsaicin-based assay, Protocol 2 (TRPV1/CHO cells, Fluo-4, FLIPR); assay type: cell-based; conditions: capsaicin 100 nM final, mean ± SEM, number of trials in parentheses, read-out: TRPV1 IC50 Potency, Human Capsaicin CHO (hCAP-CHO)
T1 construct: using primers designed surrounding the complete hTRPV1 open reading frame; expressed in transfected cells; host or cells: CHO-K1 cells stably transfected with pcDNA3.1(-)-hVR1 plasmid
T1 sequence (Q8NER1 whole entry): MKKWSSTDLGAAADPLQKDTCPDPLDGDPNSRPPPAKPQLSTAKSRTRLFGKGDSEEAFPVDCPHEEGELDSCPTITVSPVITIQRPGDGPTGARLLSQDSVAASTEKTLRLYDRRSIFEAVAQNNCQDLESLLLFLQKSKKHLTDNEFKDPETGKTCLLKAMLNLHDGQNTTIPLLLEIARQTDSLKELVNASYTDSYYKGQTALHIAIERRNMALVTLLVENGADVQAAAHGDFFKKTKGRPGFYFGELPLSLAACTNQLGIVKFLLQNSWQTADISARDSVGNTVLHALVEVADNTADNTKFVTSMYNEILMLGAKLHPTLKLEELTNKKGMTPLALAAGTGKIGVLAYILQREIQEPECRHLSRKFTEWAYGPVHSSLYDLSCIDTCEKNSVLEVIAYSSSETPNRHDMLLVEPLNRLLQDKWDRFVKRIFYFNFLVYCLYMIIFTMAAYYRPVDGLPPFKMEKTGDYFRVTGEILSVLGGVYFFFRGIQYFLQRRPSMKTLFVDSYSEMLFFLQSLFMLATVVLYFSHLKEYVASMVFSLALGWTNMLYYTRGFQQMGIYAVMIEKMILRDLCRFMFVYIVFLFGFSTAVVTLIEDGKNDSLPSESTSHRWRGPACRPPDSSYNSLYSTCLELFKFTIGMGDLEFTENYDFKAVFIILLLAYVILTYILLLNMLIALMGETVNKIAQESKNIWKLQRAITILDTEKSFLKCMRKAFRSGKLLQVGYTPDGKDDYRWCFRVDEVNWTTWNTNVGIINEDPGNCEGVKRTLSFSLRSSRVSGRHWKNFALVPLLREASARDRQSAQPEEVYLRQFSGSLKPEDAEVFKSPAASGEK
How it was run: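 CHO cells stably transfected with human TRPV1 cDNA, kept under G418 selection, loaded with 3 μM Fluo-4 for 1 h. Calcium fluorescence followed on FLIPR after a 15 s baseline against capsaicin challenge; compounds at final 100 μM to 1.5625 μM, curves fitted over the full time course.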

human TRPV1 [2] = target: T1, human TRPV1; experiment: pH-based assay, Protocol 2 (TRPV1/CHO cells, Fura-2 AM, FDSS-3000, pH 5.0-5.1); assay type: cell-based; conditions: H2SO4 agonist, mean ± SEM, number of trials in parentheses, read-out: TRPV1 IC50 Potency, Human pH CHO (hpH-CHO)
Text: For Protocol 2, a Chinese Hamster Ovary cell line (CHO) that has been engineered to constitutively express human recombinant TRPV1 was used (TRPV1/CHO cells). The TRPV1/CHO cell line was generated as described below.
The resulting PCR products were purified from agarose gels using Gel Band Purification Kit (GE Healthcare Bioscience) and were subcloned into pCR-Blunt vector (Invitrogen). The cloned cDNA was fully sequenced using a fluorescent dye-terminator reagent (BigDye Terminator ver3.1 Cycle Sequencing Kit, Applied Biosystems) and ABI Prism 3100 genetic analyzer (Applied Biosystems). The pCR-Blunt vector containing the hTRPV1 cDNA was subjected to restriction digestion with EcoRI. The restriction fragment was subcloned into expression vector pcDNA3.1 (−) (Invitrogen) and named pcDNA3.1 (−)-hVR1 plasmid. The sequence of the cDNA encoding TRPV1 is available at GenBank accession number AJ277028.
CHO-K1 cells were maintained in growth medium consisting of α-MEM, 10% FBS (Hyclone), and 100 IU/mL of penicillin-100 μg/mL of streptomycin mixed solution (Nacalai Tesque, Japan) at 37° C. in an environment of humidified 95% air and 5% CO2. The cells were transfected with the pcDNA3.1 (−)-hVR1 plasmid using FuGENE6 (Roche) according to the manufacturer's protocol. 24 hr after transfection, neomycin-resistant cells were selected using 1 mg/mL G418 (Nacalai Tesque). After 2 weeks, individual colonies were picked, expanded, and screened for the expression of hTRPV1 in the capsaicin-induced Ca^2+ influx assay (see below) with a FLIPR (Molecular Devices). A clone with the largest Ca^2+ response to capsaicin was selected and re-cloned by the same procedure. The cells expressing hTRPV1 were cultured in the growth medium supplemented with 1 mg/mL G418.
TRPV1/CHO cells were seeded in the 96-well clear-bottom black-wall plate (Nunc) at densities of 1-2×10^4 cells/well and grown in 100 μL of culture medium (alpha-MEM supplemented with 10% FBS, 20 mM HEPES, 1 mg/mL geneticin and 1% antibiotic-antimycotic mixed stock solution) for 1-2 days before the experiment.
Different agonist solutions with sulfuric acid concentrations of from 15 mM to 18 mM (see FIG. 1) were prepared by diluting 1M sulfuric acid with measuring buffer. The different sulfuric acid concentrations in the agonist solutions were selected such that a 1:4 dilution would result in a final sulfuric acid concentration of between 3.0 mM to 3.6 mM, respectively, as indicated in FIG. 1.
The cells were stimulated using 3.0 mM (well number B1-6), 3.1 mM (C1-6), 3.2 mM (D1-6), 3.3 mM (E1-6), 3.4 mM (F1-6), 3.5 mM (G1-6), or 3.6 mM (H1-6) H2SO4 or pH 7.2 measuring buffer without H2SO4 (A1-6) (FIG. 2).
(1) Culture medium was removed using an 8-channel-pipette (Rainin, USA) from the 96-well plate and the wells were refilled with 100 μL of loading buffer (20 mM HEPES, 115 mM NaCl, 5.4 mM KCl, 0.8 mM MgCl2, 1.8 mM CaCl2, 13.8 mM D-glucose, 2.5 mM probenecid, pH 7.4) containing 5 μM Fura-2 AM (Dojin, Japan).
(2) The 96-well plate was incubated at 37° C. for 45 min.
(3) The loading buffer was removed from each well. The cells were subsequently washed twice with 150 μL of measuring buffer (20 mM HEPES, 115 mM NaCl, 5.4 mM KCl, 0.8 mM MgCl2, 5.0 mM CaCl2, 13.8 mM D-glucose, 0.1% BSA, pH 7.4) (no probenecid). The wells were then refilled with 80 μL of measuring buffer.
(4) After an incubation at 4° C. for 15 min, the 96-well plate was transferred to FDSS-3000 (Hamamatsu Photonics, Japan).
(5) The Fura-2 fluorescent intensity was monitored at a wavelength of 340 nm and at 380 nm, respectively, at a rate of 0.5 Hz for a total of 240 seconds.

Aqueous solubility = assay type: physicochemical; conditions: aqueous solution
[3] = pH 1.2, simulated gastric fluid, read-out: aqueous solubility at pH 1.2
[4] = pH 6.8, aqueous buffer, read-out: aqueous solubility at pH 6.8

Row | SMILES | IC50 (human TRPV1 [1]) | IC50 (human TRPV1 [2]) | solubility (Aqueous solubility; [3]) | solubility (Aqueous solubility; [4])
1 | O=C(Nc1ccc(C(F)(F)F)cc1)N1CC=C(c2ncc(CO)cc2Cl)CC1 [Compound J2] | 129 ± 26 nM | 41.7 ± 4.4 nM | > 50 µM | > 50 µM
2 | O=C(Nc1ccc(C(F)(F)F)cc1)N1CCC(F)(c2ncc([C@H](O)CO)cc2Cl)CC1 [Compound N1, (S)-4-(3-chloro-5-(1,2-dihydroxyethyl)pyridin-2-yl)-4-fluoro-N-(4-(trifluoromethyl)phenyl)piperidine-1-carboxamide] | 38.7 ± 5.3 nM | 6.3 ± 0.8 nM | > 50 µM | 28 µM (≈ 12.9 µg/mL)
3 | O=C(Nc1ccc(C(F)(F)F)c(F)c1)N1CCC(F)(c2ncc([C@H](O)CO)cc2Cl)CC1 [Compound F1] | 18.6 ± 6.8 nM | 9 ± 2.3 nM | > 50 µM | 22.6 µM (≈ 10.8 µg/mL)
4 | O=C(Nc1ccc(OC(F)(F)F)cc1)N1CCC(F)(c2ncc([C@H](O)CO)cc2Cl)CC1 [Compound C1] | 15.3 ± 6.9 nM | 11.3 ± 0.8 nM | > 50 µM | 15.7 µM (≈ 7.5 µg/mL)
5 | O=C(Nc1ccc(S(=O)(=O)C(F)(F)F)cc1)N1CCC(F)(c2ncc([C@H](O)CO)cc2Cl)CC1 [Compound H1] | 31.7 ± 8.9 nM |  | > 50 µM | > 50 µM
6 | O=C(Nc1ccc(C(F)(F)F)cc1)N1CC=C(c2ncccc2Cl)CC1 [Compound 200] |  |  | < 0.1 µM | < 0.1 µM
7 | COC(=O)Cc1cnc(C2=CCN(C(=O)Nc3ccc(C(F)(F)F)cc3)CC2)c(Cl)c1 [Compound F6] | 864 nM | 467 nM | > 50 µM | 9.2 µM (≈ 4.18 µg/mL)
8 | O=C(Nc1ccc(C(F)(F)F)cc1)N1CC=C(c2ncc([C@H](O)CO)cc2Cl)CC1 [Compound Z1, (S)-3-Chloro-5-(1,2-dihydroxy-ethyl)-3′,6′-dihydro-2′H-[2,4′]bipyridinyl-1′-carboxylic acid (4-trifluoromethyl-phenyl)amide] | 75.8 ± 12.4 nM | 11.6 ± 0.7 nM | > 50 µM | > 50 µM
9 | O=C(Nc1ccc(C(F)(F)F)c(F)c1)N1CC=C(c2ncc([C@H](O)CO)cc2Cl)CC1 [Compound S1, (S)-3-Chloro-5-(1,2-dihydroxy-ethyl)-3′,6′-dihydro-2′H-[2,4′]bipyridinyl-1′-carboxylic acid (3-fluoro-4-trifluoromethyl-phenyl)amide] | 53.5 ± 16.3 nM | 16.3 ± 2 nM | > 50 µM | > 50 µM
10 | O=C(Nc1ccc(C(F)(F)F)c(F)c1)N1CCC(F)(c2ncc([C@H](O)CO)cc2F)CC1 [Compound Y3] | 43.9 ± 10 nM |  | > 50 µM | 17.4 µM (≈ 8.06 µg/mL)
11 | CCOC(=O)c1cnc(C2=CCN(C(=O)Nc3ccc(C(F)(F)F)cc3)CC2)c(Cl)c1 [Compound F2] | 108 ± 24.3 nM | 62.9 ± 8.8 nM | 1 µM (≈ 0.454 µg/mL) | 3 µM (≈ 1.36 µg/mL)
12 | O=C(Nc1ccc(OC(F)(F)F)cc1)N1CC=C(c2ncc([C@H](O)CO)cc2Cl)CC1 [Compound E2] | 107 ± 18.8 nM | 20.3 ± 1.7 nM | > 50 µM | > 50 µM
13 | O=C(Nc1ccc(C(F)(F)F)cc1)N1CCC(F)(c2ncc([C@H](O)CO)cc2F)CC1 [Compound N6] |  |  | > 50 µM | > 50 µM
14 | CN(C)Cc1cnc(C2=CCN(C(=O)Nc3ccc(C(F)(F)F)cc3)CC2)c(Cl)c1 [Compound H6] | 924 nM |  | > 50 µM | > 50 µM
15 | O=C(O)Cc1cnc(C2=CCN(C(=O)Nc3ccc(C(F)(F)F)cc3)CC2)c(Cl)c1 [Compound G6] | > 25000 nM |  | > 50 µM | > 50 µM
16 | O=C(Nc1nc2ccc(Cl)cc2s1)N1CCC(F)(c2ncc([C@H](O)CO)cc2Cl)CC1 [Compound Z4] | 62.8 ± 11.4 nM | 16.5 ± 3.3 nM |  | 
17 | O=C(Nc1nc2ccc(Cl)cc2s1)N1CC=C(c2ncc(CO)cc2Cl)CC1 [Compound V2] | 234 ± 44.6 nM | 83.2 ± 7.6 nM |  | 

Row | SMILES | IC50 (human TRPV1 [1]) | IC50 (human TRPV1 [2]) | solubility (Aqueous solubility; [3]) | solubility (Aqueous solubility; [4])
18 | O=C(Nc1nc2ccc(Cl)cc2s1)N1CC=C(c2ncc([C@@H](O)CO)cc2Cl)CC1 [Compound P3] | 183 ± 38.1 nM | 28.5 nM |  | 
19 | O=C(Nc1ccc(S(=O)(=O)C(F)(F)F)cc1)N1CC=C(c2ncc([C@H](O)CO)cc2Cl)CC1 [Compound Q1] | 51 ± 16.4 nM | 8.1 ± 0.7 nM |  | 
20 | Cc1cc(NC(=O)N2CCC(F)(c3ncc([C@@H](O)CO)cc3Cl)CC2)ccc1OC(F)(F)F [Compound V5] | 45.5 ± 2.1 nM | 10.1 ± 1.4 nM |  | 
21 | O=C(Nc1ccc(Cl)c(C(F)(F)F)c1)N1CC=C(c2ncc([C@H](O)CO)cc2F)CC1 [Compound K2] | 141 ± 41.9 nM | 47.2 ± 6.7 nM |  | 
22 | O=C(Nc1ccc(C(F)(F)F)cn1)N1CC=C(c2ncc([C@H](O)CO)cc2Cl)CC1 [Compound K1] | 35.1 ± 8.8 nM | 39.5 nM |  | 
23 | Cc1cc(NC(=O)N2CC=C(c3ncc([C@H](O)CO)cc3F)CC2)ccc1OC(F)(F)F [Compound S3] | 17.7 ± 2 nM | 9.2 nM |  | 
24 | O=C(Nc1ccc(C(F)(F)F)cc1)N1CCC(F)(c2ncc([C@@H](O)CO)cc2Cl)CC1 [Compound B1] | 7.81 ± 1.2 nM | 7.4 ± 0.3 nM |  | 
25 | O=C(Nc1ccc(OC(F)(F)F)c(Br)c1)N1CC=C(c2ncc(CO)cc2Cl)CC1 [Compound R2] | 200 ± 26.8 nM | 49.6 ± 3.4 nM |  | 
26 | N#CCc1cnc(C2=CCN(C(=O)Nc3ccc(C(F)(F)F)cc3)CC2)c(Cl)c1 [Compound E6, 4-(3-chloro-5-(cyanomethyl)pyridin-2-yl)-N-(4-(trifluoromethyl)phenyl)-5,6-dihydropyridine-1(2H)-carboxamide] | 265 nM |  | 27.2 µM (≈ 11.4 µg/mL) | 9 µM (≈ 3.79 µg/mL)
27 | O=C(Nc1nc2ccc(F)cc2s1)N1CCC(F)(c2ncccc2Cl)CC1 [Compound 206] | 508 nM | 1460 nM |  | 
28 | CCCOc1cc(NC(=O)N2CC=C(c3ncc(CO)cc3Cl)CC2)ccc1C(F)(F)F [Compound O2] | 162 ± 29.5 nM | 18.8 ± 4 nM |  | 
29 | CC(C)(C)c1ccc(NC(=O)N2CCN(c3ncc([C@H](O)CO)cc3Cl)CC2)cc1 [Compound K6, (S)—N-(4-tert-butylphenyl)-4-(3-chloro-5-(1,2-dihydroxyethyl)pyridin-2-yl)piperazine-1-carboxamide] | 9.8 ± 2.3 nM | 0.8 ± 0.1 nM |  | 
30 | O=C(Nc1ccc(C(F)(F)F)cn1)N1CC=C(c2ncc(CO)cc2Cl)CC1 [Compound Z2] | 401 ± 122 nM | 248 ± 45.3 nM |  | 
31 | CC(C)Oc1ccc(NC(=O)N2CC=C(c3ncc(CO)cc3Cl)CC2)cc1C(F)(F)F [Compound I2] | 122 ± 7.1 nM | 18 ± 1 nM |  | 
32 | O=C(Nc1ccc(C(F)(F)F)cn1)N1CC=C(c2ncccc2Cl)CC1 [Compound 201] | 131 nM | 185 nM |  | 
33 | O=C(Nc1ccc(Cl)c(C(F)(F)F)c1)N1CCC(F)(c2ncc([C@@H](O)CO)cc2F)CC1 [Compound G5] | 400 ± 10.6 nM | 108 nM |  | 
